PMC6260619, “Selective Cytotoxicity of Goniothalamin against Hepatoblastoma HepG2 Cells” (Molecules, 2011)
Read-outs that look alike come from different tables or passages of the source.

How the values were obtained:
Type in all cases: cell-based, human
[1] = tested on: Chang cells; experiment: MTT cytotoxicity assay, Chang; details: for IC50: read-out: IC50 from MTT
Description: HepG2 and Chang cells were plated at 1 × 10^4 cells/well by adding 200 μL of a 5 × 10^4 cells/mL suspension to each well of a 96-well tissue culture plate. The plate was incubated for a sufficient time to assure attachment and 40% to 60% confluency. […] The last row was left as an untreated control. The plates were incubated at 37 °C, 5% CO2, for 24, 48 and 72 hours, respectively. After incubation with compounds, the media was aspirated off and replaced with fresh media. Then, MTT solution (20 μL) for a total volume of 200 μL was added in every well and incubated for 4 to 6 hours at 37 °C with 5% CO2. After that, MTT-containing medium was removed gently and replaced with DMSO (200 μL per well) to mix the formazan crystals until dissolved. The plates were read on microtiter plate reader at 570 nm. For each compound tested, the IC50 (concentration of drug needed to inhibit cell growth by 50%) is generated from the dose-response curves for each cell line.

[2] = tested on: HepG2 cells; experiment: LDH leakage assay, HepG2; details: for IC50: Homo sapiens, read-out: IC50 from LDH
Description: Measurement of LDH activity is another indicator of cell viability through evaluation of the cell membrane permeability. The enzyme activity is measured externally, as it leaks from dead cells which lose their membrane integrity. LDH leakage detection is based on the loss of NADH due to its oxidation to NAD^+, resulting in the conversion of pyruvate to lactate. Untreated cells should retain LDH in their cells and have minimal loss over the time of the assay. Triton X-100-treated cells that give the maximum loss of LDH were used as the positive control in this assay.
To determine the effect of goniothalamin on membrane permeability in HepG2 and Chang cell lines, a lactate dehydrogenase (LDH) release assay was used. The cells were seeded in 96-well culture plates at a density of 2 × 10^4 cells/well in 100 μL volume and allowed to grow for 18 hours before treatment. After treatment, the plates were incubated for 24, 48 and 72 hours, respectively. Then, the supernatant (40 μL) was transferred to a new 96 well to determine LDH release and 6% triton X-100 (40 μL) was added to the original plate for determination of total LDH. An aliquot of 0.1 M potassium phosphate buffer (100 μL, pH 7.5) containing 4.6 mM pyruvic acid was mixed to the supernatant using repeated pipetting. Then, 0.1 M potassium phosphate buffer (100 μL, pH 7.5) containing 0.4 mg/mL reduced β-NADH was added to the wells. The kinetic changes were read for 1 min using ELISA microplate reader in absorbance at wavelength 340 nm. This procedure was repeated with 40 μL of the total cell lysate to determine total LDH U/well. A change of 0.001 absorbance units/min is equivalent to 1 U/L of LDH activity. The percentage of LDH release was determined by dividing the LDH released into the media by the total LDH following cell lysis in the same well.

[3] = tested on: HepG2 cells; experiment: BrdU cell proliferation ELISA, HepG2
Description: To further confirm the potential of goniothalamin-induced cell death HepG2 cells, a BrdU cell proliferation assay was performed. The cell proliferation percentage was measured by the incorporation of the thymidine analogue bromodeoxyuridine into DNA. In untreated HepG2, the absorbances (OD) at 450 nm wavelength were 1.445, 2.188 and 2.553 for 24, 48 and 72 hours, respectively. The cell proliferation rate was reduced in a concentration dependent manner after the addition of goniothalamin, compared to untreated control cells after all the times (Figure 3). […] Inhibition of DNA synthesis at the highest concentration (150 µM) is also time-dependent and is the most severe.
To confirm anti-proliferative effects in goniothalamin-treated cells, BrdU cell proliferation kit was used. HepG2 and Chang cells were seeded at 1.5 × 10^5 cells/mL in a final volume of 100 μL in a 96-well culture dish and incubated overnight to allow the cells to adhere to the dish. Each sample was assayed in triplicate. Besides, the control samples include a blank (no cells) and background (cells without BrdU) was also prepared. […] Then, BrdU label (20 μL, diluted by 1/2,000 in media) was added to each well and incubated for 24 h at 37 °C. The media was discarded and replaced by fix/denaturing solution (200 μL). The plate was incubated for 30 min at room temperature. The fix/denaturing solution was removed by inverting the plate. Then, BrdU antibody (100 μL, diluted by 1/100 in dilution buffer) was added to each well and left for 1 hour at room temperature. The cells were washed 3 times with wash buffer. After that, secondary antibody (100 μL, anti-mouse IgG HRP conjugated) was added to each well for 30 min. The washing step was done three times with wash buffer and once with distilled water. The distilled water was removed and substrate solution (100 μL) was added to each well. The plate was left for 15 min at room temperature in the dark condition. Finally, stop solution (100 μL) was added to the wells and absorbance measured at 450–540 nm.

Question: Which “decrease of cell growth vs untreated control” value (from here on “decrease of cell growth”) ([1]; 37.5 μM, 24 hours) does the source give for `O=C1C=CC[C@H](/C=C/c2ccccc2)O1` [Goniothalamin, 5-hydroxy-7-phenylhepta-2,6-dienoic acid lactone] here?
Answer: Its value is 39%.

Question: What about the “decrease of cell growth” value ([1]; 37.5 μM, 48 hours) of the same compound?
Answer: Its value is 44%.

Question: What about the “decrease of cell growth” value ([1]; 37.5 μM, 72 hours) of the same compound?
Answer: The value was 54%.

Question: What about the “decrease of cell growth” value ([1]; 75 μM, 24 hours) of the same compound?
Answer: The value was “approximately 49%”.

Question: And the “decrease of cell growth” value ([1]; 75 μM, 48 hours)?
Answer: The value was roughly 53%.

Question: And the “decrease of cell growth” value ([1]; 75 μM, 72 hours)?
Answer: The value was roughly 63%.

Question: And the IC50 ([1]; 72 hours)?
Answer: The IC50 was 35 µM.

Question: And the IC50 ([1]; Homo sapiens, 24 h)?
Answer: Its IC50 is 79.1 µM.

Question: What about the IC50 ([1]; Homo sapiens, 48 h) of the same compound?
Answer: Its IC50 is 63.8 µM.

Question: What about the IC50 ([1]; Homo sapiens, 72 h) of the same compound?
Answer: The IC50 was 35 µM.

Question: And the “death percentage compared to Triton X-100-treated cells” value ([2]; HepG2, 4.6 µM, 72 hours)?
Answer: The value was 50%.

Question: What about the LDH leakage ([2]; HepG2, 9.4 µM, 72 hours, relative to Triton X-100 maximum) of the same compound?
Answer: Its LDH leakage is 62%.

Question: What about the LDH leakage ([2]; HepG2, 37.5 µM, 24 hours) of the same compound?
Answer: The LDH leakage was 60%.

Question: And the LDH leakage ([2]; HepG2, 37.5 µM, 48 hours)?
Answer: The LDH leakage was 70%.

Question: What about the LDH leakage ([2]; HepG2, 37.5 µM, 72 hours) of the same compound?
Answer: The LDH leakage was 70%.

Question: What about the LDH leakage ([2]; HepG2, 150 µM, 24 hours) of the same compound?
Answer: The LDH leakage was 80%.

Question: What about the LDH leakage ([2]; HepG2, 150 µM, 48 hours) of the same compound?
Answer: Its LDH leakage is 86%.

Question: What about the LDH leakage ([2]; HepG2, 150 µM, 72 hours) of the same compound?
Answer: The LDH leakage was 93%.

Question: And the IC50 ([2]; HepG2, 24 hours)?
Answer: Its IC50 is 13.4 µM.

Question: And the IC50 ([2]; HepG2, 48 hours)?
Answer: Its IC50 is 8.29 µM.

Question: And the IC50 ([2]; HepG2, 72 hours)?
Answer: Its IC50 is 5.2 µM.

Question: And the “OD value at 450 nm (BrdU incorporation)” value ([3]; HepG2, IC50 concentration, 24 hours, untreated 1.445)?
Answer: Its value is 0.635.

Question: And the “OD value at 450 nm (BrdU incorporation)” value ([3]; HepG2, IC50 concentration, 72 hours, untreated 2.553)?
Answer: Its value is 0.372.

Question: What about the “cell proliferation as compared to control (BrdU)” value ([3]; HepG2, lowest concentration (2.3 µL as printed), 72 hours) of the same compound?
Answer: Its value is 19.8%.

Question: And the “OD value at 450 nm (BrdU incorporation)” value ([3]; HepG2, lowest concentration, 72 hours, untreated 2.553)?
Answer: The value was 0.505.
